The record followed here is patent publication US20260183393A1, “IMMUNOSUPPRESSANT-RESISTANT MODIFIED ALLOGENEIC MODIFIED IMMUNE CELLS AND METHODS FOR USE THEREOF” (Beam Therapeutics Inc., priority 2023, published 2026).

The structures appear in SMILES notation.

Holding throughout (assay type): cell-based, human
Experiment [1] has as its system mTOR and downstream substrates S6Rp and 4E-BP1. Put plainly: Phosphorylation of mTOR, S6 and 4EBP1 in malignant B cell lines. Conditions: JeKo-1, Raji and Nalm6 cells treated with DMSO or RPM. As to the method:
(§1) FIGS. 26A to 26E provide histograms and plots showing malignant B cell lines were sensitive to Rapamycin treatment in vitro. FIG. 26A provides histograms showing geometric median fluorescent intensity (MFI) of phosphorylated mTOR (pS2448), S6 (pS235/[…]) and 4EBP1 (pT36/T45) in JeKo-1, Raji and Nalm6 cell lines, as well as primary human monocytes and bulk lymphocytes. FIGS. 26B to 26D relate to an experiment where JeKo-1, Raji and Nalm6 cells were treated with DMSO or Rapamycin (RPM) and then analyzed for phosphorylation level of mTOR (FIG. 26B), S6 (FIG. 26C) and 4EBP1 (FIG. 26D). FIG. 26E provides plots showing JeKo-1, Raji and Nalm6 cell growth kinetics after treatment with DMSO or RPM at different concentrations. Symbols indicate mean and error bars show ±s.e.m.
Live cells were discriminated by staining negative for Fixable Viability Dye eFluor780 (eBioscience). CountBright Counting Beads were used according to the manufacturer's instructions to determine concentration of immune cells from whole blood. Intracellular cytokines were detected using Cell Fixation & Cell Permeability Kit (Invitrogen) following manufacturer's protocol with anti-human antibodies from Biolegend: TNF-a (MAb11), IFN-g (4S.B3), IL-2 (MQH-17H12) and GM-CSF (BVD2-21C11). […] Data was analyzed using FlowJo software v.10 (Tree Star).

The test system of experiment [2] is alloreactive T cells. The experiment can be described thus: Mixed leukocyte reaction: priming and proliferation of alloreactive T cells with immunosuppressants. Conditions: for proliferation of alloreactive T cells: CellTrace Violet-labeled T cells with PBMCs from HLA disparate donors, RPM 10^−2 to 10^−4 mg mL^−1, TAC 10^0 to 10^−2 mg mL^−1, relative to VEH; for proliferation of the T cells: rapamycin 0.001 μg/mL or tacrolimus 0.1 μg/mL, HLA-mismatched PBMCs 1:1, day 7, CellTrace dilution. The protocol: Purified primary human T cells (effector cells) from a donor (Donor #1) were labeled with CellTrace™ dye and co-cultured at a 1:1 effector-to-target cell ratio with HLA-mismatched peripheral blood mononuclear cells (PBMCs) from another donor (Donor #2) that were pretreated with mitomycin C to inhibit their growth (mitomycin C inhibits cell growth). The cells were co-cultured in the presence of the immunosuppressant rapamycin (0.001 μg/mL) or tacrolimus (0.1 μg/mL) or in the presence of dimethylsulfoxide (DMSO) in place of any immunosuppressant. The immunosuppressant or DMSO was re-administered to the cultures every 48 hours. On day 7, proliferation was measured as dilution of the CellTrace™ dye assessed using flow cytometry. The numbers at the lower-left of each plot indicate the percent of total cells counted falling within the indicated region.
First, human leukocyte antigen (HLA) mismatched peripheral blood mononuclear cells (PBMCs) from a donor were co-cultured in the presence and absence of an immunosuppressant agents with T cells from a different donor that were labeled using a CellTrace dye for measuring cell proliferation. The peripheral blood mononuclear cells (PBMC) cells were treated with mitomycin C prior to being co-cultured to prevent proliferation of the PBMC cells.
It was first determined if immunosuppressants mitigate the in vitro priming of alloreactive T cells. To do so, peripheral blood mononuclear cells and CellTrace Violet-labeled T cells from HLA disparate donors were cultured in the presence of rapamycin (RPM), tacrolimus (TAC) or vehicle (VEH) control. […] Next, it was tested whether immunosuppressants alleviated in vivo T cell-driven rejection of allogeneic HLA-I CAR-T cells. Five cohorts of human immune system (HIS) mice derived from unrelated human donors were injected daily with RPM, TAC, or VEH for 2 weeks, and at 1-day post-treatment initiation all mice were co-infused with an equal amount of allogeneic HLA^+ and HLA-deficient CAR-T cells (FIG. 16A). Cohorts #3 and #4 also received syngeneic human immune system (HIS) mouse-derived CAR-T cells to control for autologous T cell persistence. […]
For the study described in FIGS. 21A to 21C, CellTrace Violet (Thermo Fisher Scientific) CD3^+ T cells (effectors) and CD3-depleted PBMCs (targets) from HLA disparate donors were cultured in triplicate at a 1:1 ratio in complete medium supplemented with 300 U mL^−1 IL-2. […] Frequency of dividing effector CD8^+ and CD4^+ T cells was measured at day 5 and 7 post-stimulation by flow cytometry.

Experiment [3] concerns NK cells. The experiment can be described thus: NK cell-mediated lysis of HLA class-I negative T cells with immunosuppressants. The note with it: 10 μg/mL; 4:1 effector-to-target ratio; 48 hours of co-culture. The protocol:
The rightmost plots represent the ratio of HLA class-I negative (target cells) and positive T cells in the absence of any NK cells (effector cells) (i.e., a culture with an effector-to-target cell ratio (E:T) of 0:1 because the culture contained no effector cells and only the target cells). Primary human NK cells were activated in vitro with IL-2 and IL-15 cytokines for 72 hours. The activated NK cells were then cultured for 24 hours in the presence of rapamycin (10 μg/mL), tacrolimus (10 μg/mL), or a dimethylsulfoxide (DMSO) control. After the 24 hours, the NK cells were then co-cultured at a 4:1 effector-to-target ratio with an equal mixture of unedited HLA class-I positive (off-target cells) or beta-2-microglobulin (B2M) knock-out (HLA class-I deficient) T cells (target cells) in the presence or absence if the immunosuppressant rapamycin or tacrolimus. T cells co-cultured in the absence of NK cells (0:1 E:T ratio) were used as control. Following 48 hours of co-culture, the frequency of HLA class-I negative and positive T cells was assessed using flow cytometry by immunostaining for pan HLA class-I (ABC). The numbers within each plot indicate the percent of total cells counted falling within the indicated region, where the left regions correspond to HLA class-I negative cells and the right regions correspond to HLA class-I positive cells. […]

Experiment [4] deals with JeKo-1. The experiment can be described thus: Cell growth kinetics with rapamycin, JeKo-1. The note with it: RPM at different concentrations. The protocol:
as §1

In the case of `CO[C@H]1C[C@@H]2CC[C@@H](C)[C@@](O)(O2)C(=O)C(=O)N2CCCC[C@H]2C(=O)O[C@H]([C@H](C)C[C@@H]2CC[C@@H](O)[C@H](OC)C2)CC(=O)[C@H](C)/C=C(\C)[C@@H](O)[C@@H](OC)C(=O)[C@H](C)C[C@H](C)/C=C/C=C/C=C/1C` [rapamycin, Rapamycin], in experiment [1], the “protein phosphorylation of mTOR and downstream substrates S6Rp and 4E-BP1” value is on record as “attenuated protein phosphorylation”. In addition, in experiment [2], the “proliferation of alloreactive T cells” value was “severely attenuated the proliferation of alloreactive T cells” and the “proliferation of the T cells” value is “hindered proliferation of the T cells”. For the same compound, the “NK cell-mediated lysis of HLA class-I negative T cells” value in experiment [3] is “attenuated”. The in vitro proliferation result in experiment [4] is listed as “inhibited in vitro proliferation”.
On to `C=CC[C@@H]1/C=C(\C)C[C@H](C)C[C@H](OC)[C@H]2O[C@@](O)(C(=O)C(=O)N3CCCC[C@H]3C(=O)O[C@H](/C(C)=C/[C@@H]3CC[C@@H](O)[C@H](OC)C3)[C@H](C)[C@@H](O)CC1=O)[C@H](C)C[C@@H]2OC` [tacrolimus, Tacrolimus], for which, in experiment [2], the “proliferation of alloreactive T cells” value is given as “severely attenuated the proliferation of alloreactive T cells” and the “proliferation of the T cells” value is “hindered proliferation of the T cells”. In experiment [3], the “NK cell-mediated lysis of HLA class-I negative T cells” value is recorded as “attenuated”.
